Results on four compounds are retold here after PMC11511194, “Key Factors for Improving Predictive Accuracy and Avoiding Overparameterization of the PBPK Absorption Model in Food Effect Studies of Weakly Basic Water-Insoluble Compounds in Immediate Release Formulations” (Pharmaceutics, 2024).

Read-outs that look alike come from different tables or passages of the source.

Data set [1] has as its system CYP3A4. Put plainly: CYP3A4 intrinsic clearance fitted in PBPK model. Particulars: Fitted to clinical PK profiles. The text has this:
(§1) S2. PBPK model development and validation physicochemical parameters for these three model drugs, including protein binding and Blood-to-Plasma (B/P) ratio, were obtained from experimental results, while log P and pKa were estimated based on the molecular formula using Gastro Plus ADMET software (version 10.3, […]
(§2) S2.1. Rivaroxaban PBPK model development and validation
S2.1.1. Rivaroxaban PBPK model development for metabolism and elimination module Given that the metabolic fractions of CYP3A4 and CYP2J2 to the systemic clearance of rivaroxaban were approximately 18% and 14% [1], respectively, and liver hydrolases contributed to about 14% of its systemic clearance, CLint_CYP3A4, CLint_CYP2J2 and CLHLM were fitted according to the metabolic fraction of rivaroxaban in vivo and concentration-time profiles from the SAD clinical trial in Caucasian subjects under fasted state. Considering that rivaroxaban was a substrate of P-gp transporter, and that about 36% and 7% of the parent drug were directly excreted by the kidney and liver, respectively, rivaroxaban may undergo active efflux through the kidney and liver in vivo [2]. Consequently, permeability-limited kidney and liver models were employed to account for the active efflux mechanism of P-gp for rivaroxaban. These models include both passive diffusion and active transport.
Clearances for passive diffusion in the kidney and liver was calculated using Equation S1 [5] and Equation S2 [6], respectively.
CL௉஽,௜ =2×P௔௣௣ × TSA௜ ሺS1ሻ where CLPD,i is the passive diffusion clearance of the drug in compartment i, Papp is the apparent permeability of the drug, and the TSAi is the regional tubular surface area of compartment i.
Log CL௉஽ =0.82×logD଻.ସ +0.5 ሺS2ሻ where CLPD is the passive diffusional clearance of APIs in the liver, and log D 7.4 is the oil-water partition coefficient at pH 7.4 [6] […]
Blood-to-plasma partition ratio 0.714 Measured
Fraction unbound in plasma 0.065 Measured […]
Caco-2(10-6cm/s) (Rivaroxaban) 8.103 Measured […]

The conditions of data set [2]: ticagrelor metabolite; supplement ref 14; cited from earlier work.
For data set [3] the following is noted: active metabolite of ticagrelor; supplement ref 17; cited from earlier work.
Data set [4] is described as follows: Additional hepatic/systemic clearance fitted in PBPK model.
Description: as §1, §2
S2.1.1. Rivaroxaban PBPK model development for metabolism and elimination module […]
its systemic clearance, CLint_CYP3A4, CLint_CYP2J2 and CLHLM were fitted according to the metabolic fraction of rivaroxaban in vivo and concentration-time profiles from the SAD clinical trial in Caucasian subjects under fasted state. […]
permeability-limited kidney and liver models were employed to account for the active efflux […]
Physicochemical properties

Data set [5] deals with Caco-2. Conditions: Apical pH : Basolateral pH 7.4 : 7.4, Passive&Active, cited from earlier work.
A short description of data set [6]: Caco-2 permeability. Format: in vitro ADME. Conditions: human, Apical pH : Basolateral pH 7.4 : 7.4, Passive&Active, Table S6 source 'Measured'. As for the experimental part: Precipitation parameters, such as critical supersaturation ratio (CSC) and precipitation rate constant (PRC), were evaluated when precipitation occurs in the neutral intestinal environment after the mixture of solution and undissolved substance is transferred from the gastric chamber in vitro. These parameters were evaluated by fitting the two-stage dissolution profile according to the crystallization kinetics equations [28, 29, 30]. The absorption module of the PBPK models for rivaroxaban, ticagrelor, and PB-201 was developed using the Advanced Dissolution, Absorption and Metabolism (ADAM) model, which incorporates a mechanistic framework based on drug permeability and the diffusion layer model (DLM). The calibrated permeability of drugs, as determined using the Caco-2 Transwell model, was used to represent the permeability of drugs in vivo [31]. The particle size of the APIs used in the formulation development was incorporated into the Particle Population Balance (PPB) option. The full PBPK model, which includes the predicted steady-state distribution volume (Vss) and tissue-plasma partition coefficient (Kp), was utilized to describe the distribution characteristics of these compounds. The Kp scalar was estimated via sensitive analysis to match observed concentration-time (C-T) profiles. […]
For orientation: Passage across Caco-2 layers is used to estimate intestinal permeability.

What is called Papp is the rate of passage across a membrane or cell layer, normalised by area and donor concentration.

In the case of `CCCSc1nc(N[C@@H]2C[C@H]2c2ccc(F)c(F)c2)c2nnn([C@@H]3C[C@H](O)[C@@H](O)[C@H]3O)c2n1` [AR-C124910XX], the “Intrinsic clearance of CYP 3A4” value in data set [1] is 6.000 µL/min/pmol. In data set [2], the “Fraction unbound in plasma” value is on record as 0.002. The renal excretion entry in data set [3] is on record as “about 0.04%”. Moreover, the “Additional HLM CLint” value in data set [4] stood at 5000 μL/min/mg protein.

On to `CN/C(=N/CCSCc1nc[nH]c1C)NC#N` [Cimetidine], for which the Caco-2 permeability in data set [5] (supplement ref 4) is 2.36 10-6cm/s.

In the case of `COCCc1ccc(OCC(O)CNC(C)C)cc1` (centres unmarked) [Metoprolol], in data set [5] (supplement ref 19), the Caco-2 permeability is on record as 15.0 10-6cm/s.

For `CC(C)NCC(O)COc1cccc2ccccc12` (centres unmarked) [Propranolol], in data set [6], the Papp amounted to 29.4 ×10⁻⁶ cm/s. For the same compound, the Caco-2 permeability in data set [5] (supplement ref 4) is on record as 31 10-6cm/s.
